Experimental data reported in PMC9414913, “Tyrosinase Inhibitors Derived from Chemical Constituents of Dianella ensifolia” (Plants, 2022).

Target: mushroom tyrosinase (Agaricus bisporus, UniProt C7FF04)
Assay: In vitro mushroom tyrosinase inhibition assay
Format: biochemical
Settings: for mushroom tyrosinase inhibitory effect, in words: compared with arbutin (positive control)
Protocol: The mushroom tyrosinase inhibitory assay has been described in detail previously. Briefly, various concentrations of test compounds (100 μL) and 2 mM L-tyrosine (80 μL, Sigma-Aldrich, St. Louis, MO, USA) were mixed in 96-well plates. 20 μL of mushroom tyrosinase (1000 U/mL, Sigma-Aldrich, USA) was added to initiate the assay. The absorbance of the mixture was measured at 490 nm using a microplate reader (μQuant™, BioTek Winooski, VT, USA).

Chain of mushroom tyrosinase (G1K3P4 entry or part of it): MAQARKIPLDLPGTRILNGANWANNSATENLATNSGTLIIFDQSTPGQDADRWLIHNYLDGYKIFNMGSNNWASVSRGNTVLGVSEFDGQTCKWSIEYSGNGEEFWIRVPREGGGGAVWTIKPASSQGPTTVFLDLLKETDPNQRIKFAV
Chain of mushroom tyrosinase (C7FF04 2-392): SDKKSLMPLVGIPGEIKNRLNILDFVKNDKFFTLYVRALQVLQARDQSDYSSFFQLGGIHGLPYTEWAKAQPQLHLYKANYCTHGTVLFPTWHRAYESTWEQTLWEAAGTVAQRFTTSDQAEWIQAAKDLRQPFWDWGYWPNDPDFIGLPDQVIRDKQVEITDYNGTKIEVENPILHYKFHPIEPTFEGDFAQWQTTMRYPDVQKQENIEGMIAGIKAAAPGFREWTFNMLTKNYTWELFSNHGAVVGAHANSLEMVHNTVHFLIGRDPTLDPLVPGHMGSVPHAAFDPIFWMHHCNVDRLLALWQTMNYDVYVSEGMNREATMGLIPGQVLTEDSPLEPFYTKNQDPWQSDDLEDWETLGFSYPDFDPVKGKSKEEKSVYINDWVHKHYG

| mushroom tyrosinase inhibitory effect, in words | Compound | IC50 (substrate 2 mM L-tyrosine, absorbance at 490 nm, read-out: IC50 (mushroom tyrosinase inhibitory effect)) |
| --- | --- | --- |
| moderate or weak activity | COc1cc2c(cc1OC)O[C@H](c1ccc(O)cc1)CC2 [Compound 1, (2S)-4’-hydroxy-6,7-dimethoxyflavan] | – |
| moderate or weak activity | COc1ccc2c(c1)O[C@H](c1ccccc1O)CC2 [Compound 3, (2S)-2’-hydroxy-7-methoxyflavan] | – |
| moderate or weak activity | COc1ccc2c(c1C)OC(C1(O)C=CC(=O)CC1)CC2 [Compound 4, (2S,1′S)-4-hydroxy-4-(7-methoxy-8-methylchroman-2-yl)-cyclohex-2-enone] | – |
| moderate or weak activity | Oc1ccc([C@@H]2CCc3ccc(O)cc3O2)cc1 [Compound 8, (2S)-7,4’-dihydroxyflavan] | – |
| moderate or weak activity | Cc1c(O)ccc2c1O[C@H](c1ccc(O)cc1)CC2 [Compound 10, (2S)-7,4’-dihydroxy-8-methylflavan] | – |
| moderate or weak activity | COc1ccc2c(c1C)O[C@H](c1cc(O)c(OC)c(O)c1)CC2 [Compound 12, (2S)-3’,5’-dihydroxy-7,4’-dimethoxy-8-methylflavan] | – |
| moderate or weak activity | COc1ccc([C@@H]2CCc3cc(OC)c(O)cc3O2)cc1O [Compound 13, (2S)-7,3′-dihydroxy-6,4’-dimethoxyflavan] | – |
| moderate or weak activity | CC(=O)c1c(C)cc2c(c1O)C(=O)CCC2O (stereo not shown) [Compound 41, 7-acetyl-4,8-dihydroxy-6-methyl-1-tetralone] | – |

| Compound | mushroom tyrosinase inhibitory effect, in words | IC50 (substrate 2 mM L-tyrosine, absorbance at 490 nm, read-out: IC50 (mushroom tyrosinase inhibitory effect)) |
| --- | --- | --- |
| COc1ccc2c(c1C)O[C@H](c1ccc(O)c(O)c1)CC2 [Compound 2, (2S)-3’,4’-dihydroxy-7-methoxy-8-methylflavan] | more substantial inhibitory effect against mushroom tyrosinase than arbutin | – |
| O=C1C[C@@H](c2ccc(O)cc2)Oc2cc(O)ccc21 [Compound 15, (2S)-liquiritigenin] | more substantial inhibitory effect against mushroom tyrosinase than arbutin | 109 ± 6.2 µM |
| O=c1cc(-c2ccc(O)c(O)c2)oc2cc(O)cc(O)c12 [Compound 20, luteolin] | more substantial inhibitory effect against mushroom tyrosinase than arbutin | – |
| O=c1cc(-c2ccc(O)cc2)oc2cc(O)cc(O)c12 [Compound 21, apigenin] | more substantial inhibitory effect against mushroom tyrosinase than arbutin | – |
